The values below are quoted from earlier work in patent US10172922B2, “Rapid-acting insulin compositions” (Eli Lilly and Company, priority 2014, dated 2019).

The conditions of this data set: on a molar basis.

On to “28^B-L-Lysine-29^B-L-proline human insulin [Insulin lispro]”, for which the “Potency relative to human insulin” value is on record as “equipotent to human insulin on a molar basis”.
